Source: patent publication US6737383B1, “Herbicidal oxadiazolidines” (priority 1999, dated 2004)

How the values were obtained:
velvetleaf = assay: Test B pre/postemergence velvetleaf; assay type: in vivo, Abutilon theophrasti
Outline: (§1)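 Response is a visual 0-to-10 score relative to untreated plants, where 0 means no effect and 10 means complete control, taken twelve to sixteen days after application. Treatments went onto soil at planting and onto foliage of 1- to 4-leaf plants, using a surfactant-containing non-phytotoxic solvent.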

corn = assay: Test B pre/postemergence corn; assay type: in vivo, Zea mays
Outline: as §1

smallflower flatsedge = assay: Test B flood test smallflower flatsedge; assay type: in vivo, Cyperus difformis
Outline: (§2)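 Plants were grown to the 2-leaf stage before treatment with test chemical, then held in a greenhouse for twelve to sixteen days. Injury was visually rated against untreated controls on a 0–10 scale, where 0 is no effect and 10 is complete control.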

rape = assay: Test B pre/postemergence rape; assay type: in vivo, Brassica napus
Outline: as §1

crabgrass = assay: Test B pre/postemergence crabgrass; assay type: in vivo, Digitaria sanguinalis
Outline: as §1

rice = assay: Test B flood test rice; assay type: in vivo, Oryza sativa
Outline: as §2

purple nutsedge = assay: Test B pre/postemergence purple nutsedge; assay type: in vivo, Cyperus rotundus
Outline: as §1

blackgrass = assay: Test B pre/postemergence blackgrass; assay type: in vivo, Alopecurus myosuroides
Outline: as §1

duck salad = assay: Test B flood test duck salad; assay type: in vivo, Heteranthera limosa
Outline: as §2

morningglory = assay: Test B pre/postemergence morningglory; assay type: in vivo, Ipomoea hederacea
Outline: as §1

wild oat = assay: Test B pre/postemergence wild oat; assay type: in vivo, Avena fatua
Outline: as §1

giant foxtail = assay: Test B pre/postemergence giant foxtail; assay type: in vivo, Setaria faberii
Outline: as §1

surinam grass = assay: Test B pre/postemergence surinam grass; assay type: in vivo, Brachiaria decumbens
Outline: as §1

bedstraw = assay: Test B pre/postemergence bedstraw; assay type: in vivo, Galium aparine
Outline: as §1

wheat = assay: Test B pre/postemergence wheat; assay type: in vivo, Triticum aestivum
Outline: as §1

soybean = assay: Test B pre/postemergence soybean; assay type: in vivo, Glycine max
Outline: as §1

[1] = Postemergence, Rate 62 g/ha, scale 0 to 10, 0 is no effect, 10 is complete control
[2] = Postemergence, Rate 250 g/ha, scale 0 to 10, 0 no effect, 10 complete control
[3] = Preemergence, Rate 31 g/ha, visual rating, scale 0 to 10 (0 no effect, 10 complete control)
[4] = Preemergence, Rate 62 g/ha, scale 0 to 10, 0 is no effect, 10 is complete control
[5] = Preemergence, Rate 125 g/ha, scale 0 to 10 (0 no effect, 10 complete control)
[6] = Preemergence, Rate 250 g/ha, scale of 0 to 10 where 0 is no effect and 10 is complete control
[7] = Rate 125 g/ha, Postemergence, scale 0 to 10, 0 no effect, 10 complete control
[8] = Rate 31 g/ha, Postemergence, scale 0 to 10
[9] = Rate 125 g/ha, Postemergence section (flood test species), scale 0 to 10, 0 no effect, 10 complete control
[10] = flood test, listed under Postemergence, Rate 250 g/ha, scale 0 to 10, 0 no effect, 10 complete control
[11] = Rate 500 g/ha, Postemergence section of Table B, 0 to 10 scale (0 no effect, 10 complete control)

COc1ccc(-n2c(=O)on(C(=O)N(c3ccc(F)cc3)C(C)C)c2=O)c(OC)c1 [Compound 33]
2: Velvetleaf plant response rating (velvetleaf; [2]) | S. Flatsedge plant response rating (smallflower flatsedge; [10]) | Crabgrass plant response rating (crabgrass; [2]) | Crabgrass plant response rating (crabgrass; [7]) | Rice plant response rating (rice; [10]) | Plant response rating, Wild oats (wild oat; [5]) | Plant response rating, Wild oats (wild oat; [6]) | Bedstraw plant response rating (bedstraw; [2]) | Soybean plant response rating (soybean; [1])
8: Morningglory plant response rating (morningglory; [7])
5: Blackgrass plant response rating (blackgrass; [2]) | Blackgrass plant response rating (blackgrass; [7])
1: Velvetleaf plant response rating (velvetleaf; [7]) | Crabgrass plant response rating (crabgrass; [1]) | Plant response rating, Morningglory (morningglory; [6]) | Wild oats plant response rating (wild oat; [2]) | Giant foxtail plant response rating (giant foxtail; [7]) | B. signalgrass plant response rating (surinam grass; [2]) | Bedstraw plant response rating (bedstraw; [7])
9: Morningglory plant response rating (morningglory; [2]) | Plant response rating, Giant foxtail (giant foxtail; [6])
4: Rice plant response rating (rice; [11]) | Blackgrass plant response rating (blackgrass; [1]) | Plant response rating, Giant foxtail (giant foxtail; [4])
6: Plant response rating, Giant foxtail (giant foxtail; [5])
7: Plant response rating, Crabgrass (crabgrass; [6]) | Plant response rating, B. signalgrass (surinam grass; [6])
3: Rape plant response rating (rape; [2]) | Crabgrass plant response rating (crabgrass; [3]) | Plant response rating, Crabgrass (crabgrass; [4]) | Plant response rating, Crabgrass (crabgrass; [5]) | Blackgrass plant response rating (blackgrass; [8]) | Morningglory plant response rating (morningglory; [1]) | Morningglory plant response rating (morningglory; [8]) | Giant foxtail plant response rating (giant foxtail; [2]) | Giant foxtail plant response rating (giant foxtail; [3]) | Soybean plant response rating (soybean; [2]) | Soybean plant response rating (soybean; [7])
0: Velvetleaf plant response rating (velvetleaf; [1]) | Velvetleaf plant response rating (velvetleaf; [3]) | Plant response rating, Velvetleaf (velvetleaf; [4]) | Plant response rating, Velvetleaf (velvetleaf; [5]) | Plant response rating, Velvetleaf (velvetleaf; [6]) | Corn plant response rating (corn; [1]) | Corn plant response rating (corn; [2]) | Corn plant response rating (corn; [3]) | Plant response rating, Corn (corn; [4]) | Plant response rating, Corn (corn; [5]) | Plant response rating, Corn (corn; [6]) | Corn plant response rating (corn; [8]) | Corn plant response rating (corn; [7]) | S. Flatsedge plant response rating (smallflower flatsedge; [1]) | S. Flatsedge plant response rating (smallflower flatsedge; [9]) | Rape plant response rating (rape; [1]) | Rape plant response rating (rape; [3]) | Plant response rating, Rape (rape; [4]) | Plant response rating, Rape (rape; [5]) | Plant response rating, Rape (rape; [6]) | Rape plant response rating (rape; [8]) | Rape plant response rating (rape; [7]) | Crabgrass plant response rating (crabgrass; [8]) | Rice plant response rating (rice; [1]) | Rice plant response rating (rice; [9]) | Nutsedge plant response rating (purple nutsedge; [1]) | Nutsedge plant response rating (purple nutsedge; [2]) | Nutsedge plant response rating (purple nutsedge; [3]) | Plant response rating, Nutsedge (purple nutsedge; [4]) | Plant response rating, Nutsedge (purple nutsedge; [5]) | Plant response rating, Nutsedge (purple nutsedge; [6]) | Nutsedge plant response rating (purple nutsedge; [8]) | Nutsedge plant response rating (purple nutsedge; [7]) | Blackgrass plant response rating (blackgrass; [3]) | Plant response rating, Blackgrass (blackgrass; [4]) | Plant response rating, Blackgrass (blackgrass; [5]) | Plant response rating, Blackgrass (blackgrass; [6]) | Ducksalad plant response rating (duck salad; [1]) | Ducksalad plant response rating (duck salad; [9]) | Ducksalad plant response rating (duck salad; [11]) | Ducksalad plant response rating (duck salad; [10]) | Morningglory plant response rating (morningglory; [3]) | Plant response rating, Morningglory (morningglory; [4]) | Plant response rating, Morningglory (morningglory; [5]) | Wild oats plant response rating (wild oat; [1]) | Wild oats plant response rating (wild oat; [3]) | Wild oats plant response rating (wild oat; [7]) | Giant foxtail plant response rating (giant foxtail; [1]) | Giant foxtail plant response rating (giant foxtail; [8]) | B. signalgrass plant response rating (surinam grass; [1]) | B. signalgrass plant response rating (surinam grass; [3]) | Plant response rating, B. signalgrass (surinam grass; [4]) | Plant response rating, B. signalgrass (surinam grass; [5]) | B. signalgrass plant response rating (surinam grass; [8]) | B. signalgrass plant response rating (surinam grass; [7]) | Bedstraw plant response rating (bedstraw; [1]) | Bedstraw plant response rating (bedstraw; [3]) | Plant response rating, Bedstraw (bedstraw; [4]) | Plant response rating, Bedstraw (bedstraw; [5]) | Plant response rating, Bedstraw (bedstraw; [6]) | Bedstraw plant response rating (bedstraw; [8]) | Wheat plant response rating (wheat; [1]) | Wheat plant response rating (wheat; [2]) | Wheat plant response rating (wheat; [3]) | Plant response rating, Wheat (wheat; [4]) | Plant response rating, Wheat (wheat; [5]) | Plant response rating, Wheat (wheat; [6]) | Wheat plant response rating (wheat; [7]) | Soybean plant response rating (soybean; [3]) | Plant response rating, Soybean (soybean; [4]) | Plant response rating, Soybean (soybean; [5]) | Plant response rating, Soybean (soybean; [6])
